Source: patent publication US11530244B2, “Cyclic polypeptides for PCSK9 inhibition” (priority 2018, dated 2022)
Starred links: 1 amine or outer side, 2 acyl side, 3 side chain; linkers in the order of their positions; H or OH if unused. Positions of bridges follow the written chain, without caps; N, C: chain ends. Non-standard residues stand in square brackets, D forms with d. Residues, ends and D or L forms follow the SMILES beside them. Triazole bridges read from a SMILES are 1,4-linked. Pro(cis-4-Ph) = O=C(O)[C@@H]1C[C@H](c2ccccc2)CN1; Phe(4-COOH) = N[C@@H](Cc1ccc(C(=O)O)cc1)C(=O)O; Trp(5-F) = N[C@@H](Cc1c[nH]c2ccc(F)cc12)C(=O)O; Trp(6-F) = N[C@@H](Cc1c[nH]c2cc(F)ccc12)C(=O)O; mXylylene(5-F) = Fc1cc(C[*:1])cc(C[*:2])c1; X19 = O=C(CCCCc1ccc(CCCCN[*:1])cc1)[*:2]; Lys(N3) = [N-]=[N+]=NCCCC[C@H](N)C(=O)O; Orn(N3) = [N-]=[N+]=NCCC[C@H](N)C(=O)O; mXylylene = c1cc(C[*:1])cc(C[*:2])c1; αMeP = C[C@@]1(C(=O)O)CCCN1; Hpra = C#CCC[C@H](N)C(=O)O; dPra = C#CC[C@@H](N)C(=O)O; Orn = NCCC[C@H](N)C(=O)O; Mpa = O=C(O)CCS

Assays:
[1] = target: human PCSK9 / human LDLR EGFa domain interaction (Homo sapiens (Human), UniProt Q8NBP7); test: TR-FRET assay of inhibition of the PCSK9-LDLR protein-protein interaction; type: binding; details: TR-FRET, 20 nM human PCSK9, 20 nM human LDLR EGFa domain, 2 hours room temperature; read-out: IC50
human PCSK9 / human LDLR EGFa domain interaction, sequence (Q8NBP7 153-692): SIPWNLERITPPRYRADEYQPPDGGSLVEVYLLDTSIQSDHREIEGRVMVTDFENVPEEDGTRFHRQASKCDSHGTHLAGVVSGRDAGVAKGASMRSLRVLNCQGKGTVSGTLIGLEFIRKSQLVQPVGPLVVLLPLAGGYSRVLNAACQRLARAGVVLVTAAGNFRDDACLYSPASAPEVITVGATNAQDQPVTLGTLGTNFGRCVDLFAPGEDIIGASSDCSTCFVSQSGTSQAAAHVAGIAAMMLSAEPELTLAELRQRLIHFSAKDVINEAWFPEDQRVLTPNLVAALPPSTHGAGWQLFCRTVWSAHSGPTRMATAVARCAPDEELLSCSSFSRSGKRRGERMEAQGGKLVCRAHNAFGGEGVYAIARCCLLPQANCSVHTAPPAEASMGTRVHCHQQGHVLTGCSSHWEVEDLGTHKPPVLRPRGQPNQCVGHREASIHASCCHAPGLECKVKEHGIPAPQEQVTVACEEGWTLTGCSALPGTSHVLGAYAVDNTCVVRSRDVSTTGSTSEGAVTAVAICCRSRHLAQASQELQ
human PCSK9 / human LDLR EGFa domain interaction, sequence (Q8NBP7 31-152 partner): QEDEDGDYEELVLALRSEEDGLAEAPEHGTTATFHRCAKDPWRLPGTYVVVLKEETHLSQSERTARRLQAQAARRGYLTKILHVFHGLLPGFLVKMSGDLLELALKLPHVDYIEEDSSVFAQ
Procedure, shortened: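 Half-maximal inhibitory concentrations came from 4-parameter fits of dose-response data. Proteins: biotinylated PCSK9, His-tagged LDLR EGFa, 20 nM each; labels 5 nM; 2 h, room temperature; buffer 50 mM HEPES, 150 mM NaCl, 5 mM CaCl2.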

[2] = target: PCSK9 (Homo sapiens (Human), UniProt Q8NBP7); test: PCSK9 Alexa FRET Standard assay (displacement of AlexaFluor647 tagged cyclic peptide Reagent A); type: binding; details: PCSK9 Alexa FRET Standard assay, 0.5 nM PCSK9, 20 nM AF cyclic peptide Reagent A; read-out: IC50
PCSK9, sequence (Q8NBP7 153-692): as the sequence (Q8NBP7 153-692) above
Procedure, shortened: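 TR-FRET displacement: 0.5 nM biotinylated PCSK9 with 1.25 nM Strep-Eu and 20 nM AlexaFluor-tagged cyclic peptide (final) in 50 mM HEPES pH 7.4, 0.15 M NaCl, 5 mM CaCl2, 0.01% BSA, 0.01% P20, ≥2 h at room temperature. IC50 from sigmoidal fit, converted to Ki via peptide KD; falling Eu counts flagged false positives.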

Structure (SMILES)	IC50 [1]	IC50 [2]
C[C@H]1NC(=O)[C@H](Cc2cnc[nH]2)NC(=O)[C@H](CC(=O)O)NC(=O)[C@H](Cc2c[nH]c3ccc(F)cc23)NC(=O)[C@H](Cc2c[nH]c3ccc(F)cc23)NC(=O)CNC(=O)[C@H](CCCCN)NC(=O)CCSCc2cccc(c2)CSC[C@@H](C(N)=O)NC(=O)[C@]2(C)CCCN2C1=O [Compound 319] ([Mpa]KG[Trp(5-F)][Trp(5-F)]DH[dA][αMeP]C-NH2; linker 1-10 via mXylylene)	100 to 1000 nM	1000 to 12100 nM
NCCCC[C@@H]1NC(=O)CCSCc2cccc(c2)CSC[C@@H](C(N)=O)NC(=O)[C@@H]2C[C@H](c3ccccc3)CN2C(=O)[C@H](Cc2ccc(O)cc2)NC(=O)[C@H](Cc2cnc[nH]2)NC(=O)[C@H](CC(=O)O)NC(=O)[C@H](Cc2c[nH]c3ccc(F)cc23)NC(=O)[C@H](Cc2c[nH]c3ccc(F)cc23)NC(=O)CNC1=O [Compound 329] ([Mpa]KG[Trp(5-F)][Trp(5-F)]DHY[Pro(cis-4-Ph)]C-NH2; linker 1-10 via mXylylene)	100 to 1000 nM	100 to 1000 nM
CC(=O)N[C@H]1Cc2cn(nn2)-c2ccc(cc2)C[C@@H](C(N)=O)NC(=O)[C@]2(C)CCCN2C(=O)[C@H](Cc2ccc(O)cc2)NC(=O)[C@H](Cc2cnc[nH]2)NC(=O)[C@H](CC(=O)O)NC(=O)[C@H](Cc2c[nH]c3ccc(F)cc23)NC(=O)[C@H](Cc2c[nH]c3ccc(F)cc23)NC(=O)CNC(=O)[C@H](C)NC1=O [Compound 334]	21000 to 50000 nM	21000 to 50000 nM
CC(=O)N[C@@H]1Cc2cn(nn2)CCC[C@@H](C(N)=O)NC(=O)[C@]2(C)CCCN2C(=O)[C@H](Cc2ccc(O)cc2)NC(=O)[C@H](Cc2cnc[nH]2)NC(=O)[C@H](CC(=O)O)NC(=O)[C@H](Cc2c[nH]c3ccc(F)cc23)NC(=O)[C@H](Cc2c[nH]c3ccc(F)cc23)NC(=O)CNC1=O [Compound 335] (Ac-[dPra]G[Trp(5-F)][Trp(5-F)]DHY[αMeP][Orn(N3)]-NH2; triazole 1-9)	1000 to 12100 nM	1000 to 12100 nM
CC(=O)N[C@@H]1Cc2cn(nn2)CCCC[C@@H](C(N)=O)NC(=O)[C@]2(C)CCCN2C(=O)[C@H](Cc2ccc(O)cc2)NC(=O)[C@H](Cc2cnc[nH]2)NC(=O)[C@H](CC(=O)O)NC(=O)[C@H](Cc2c[nH]c3ccc(F)cc23)NC(=O)[C@H](Cc2c[nH]c3ccc(F)cc23)NC(=O)CNC1=O [Compound 336] (Ac-[dPra]G[Trp(5-F)][Trp(5-F)]DHY[αMeP][Lys(N3)]-NH2; triazole 1-9)	0.1 to 100 nM	100 to 1000 nM

Further lines, results first:

IC50 [1]	IC50 [2]	Structure (SMILES)
100 to 1000 nM	1000 to 12100 nM	CC(=O)N[C@H]1CCCNC(=O)c2ccc(cc2)C[C@@H](C(N)=O)NC(=O)[C@]2(C)CCCN2C(=O)[C@H](Cc2ccc(O)cc2)NC(=O)[C@H](Cc2cnc[nH]2)NC(=O)[C@H](CC(=O)O)NC(=O)[C@H](Cc2c[nH]c3cc(F)ccc23)NC(=O)[C@H](Cc2c[nH]c3ccc(F)cc23)NC(=O)CNC(=O)[C@H](C)NC1=O [Compound 314] (Ac-[Orn]AG[Trp(5-F)][Trp(6-F)]DHY[αMeP][Phe(4-COOH)]-NH2; lactam 1-10)
100 to 1000 nM	1000 to 12100 nM	C[C@@H]1NC(=O)CCCCc2ccc(cc2)CCCCNC(=O)C[C@@H](C(=O)N[C@@H](Cc2cnc[nH]2)C(=O)N[C@@H](Cc2ccc(O)cc2)C(=O)N2CCC[C@H]2C(N)=O)NC(=O)[C@H](Cc2c[nH]c3ccc(F)cc23)NC(=O)[C@H](Cc2c[nH]c3ccc(F)cc23)NC(=O)CNC1=O [Compound 330] ([X19]AG[Trp(5-F)][Trp(5-F)]DHYP-NH2; lactam N-6)
0.1 to 100 nM	100 to 1000 nM	CC(=O)N[C@H]1CCCCn2cc(nn2)CC[C@@H](C(N)=O)NC(=O)[C@]2(C)CCCN2C(=O)[C@H](Cc2ccc(O)cc2)NC(=O)[C@H](Cc2cnc[nH]2)NC(=O)[C@H](CC(=O)O)NC(=O)[C@H](Cc2c[nH]c3ccc(F)cc23)NC(=O)[C@H](Cc2c[nH]c3ccc(F)cc23)NC(=O)CNC(=O)[C@H](C)NC1=O [Compound 332] (Ac-[Lys(N3)]AG[Trp(5-F)][Trp(5-F)]DHY[αMeP][Hpra]-NH2; triazole 1-10)
1000 to 12100 nM	1000 to 12100 nM	CC(=O)N[C@H]1CCCn2cc(nn2)CCC[C@@H](C(N)=O)NC(=O)[C@]2(C)CCCN2C(=O)[C@H](Cc2ccc(O)cc2)NC(=O)[C@H](Cc2cnc[nH]2)NC(=O)[C@H](CC(=O)O)NC(=O)[C@H](Cc2c[nH]c3ccc(F)cc23)NC(=O)[C@H](Cc2c[nH]c3ccc(F)cc23)NC(=O)CNC(=O)[C@H](C)NC1=O [Compound 333]
1000 to 12100 nM	1000 to 12100 nM	COc1ccc(C[C@@H]2NC(=O)[C@H](Cc3cnc[nH]3)NC(=O)[C@H](CC(=O)O)NC(=O)[C@H](Cc3c[nH]c4ccc(F)cc34)NC(=O)[C@H](Cc3c[nH]c4ccc(F)cc34)NC(=O)[C@@H](C)NC(=O)[C@H](CCCCN)NC(=O)CCSCc3cc(F)cc(c3)CSC[C@@H](C(N)=O)NC(=O)[C@]3(C)CCCN3C2=O)cc1 [Compound 338] ([Mpa]K[dA][Trp(5-F)][Trp(5-F)]DHY(Me)[αMeP]C-NH2; linker 1-10 via mXylylene(5-F))
